Consider 21 molecules from patent publication US10519154B2, “7-substituted 1-pyridyl-naphthyridine-3-carboxylic acid amides and use thereof” (Bayer Pharma Aktiengesellschaft, priority 2016, dated 2019).

By EC50 is commonly meant the concentration needed to bring the measured effect to its halfway point. High values mean weaker potency, low ones greater potency.

For this experiment, the target named is T1, human M2 receptor (Homo sapiens, UniProt P08172).
T1 sequence (P08172 1-466): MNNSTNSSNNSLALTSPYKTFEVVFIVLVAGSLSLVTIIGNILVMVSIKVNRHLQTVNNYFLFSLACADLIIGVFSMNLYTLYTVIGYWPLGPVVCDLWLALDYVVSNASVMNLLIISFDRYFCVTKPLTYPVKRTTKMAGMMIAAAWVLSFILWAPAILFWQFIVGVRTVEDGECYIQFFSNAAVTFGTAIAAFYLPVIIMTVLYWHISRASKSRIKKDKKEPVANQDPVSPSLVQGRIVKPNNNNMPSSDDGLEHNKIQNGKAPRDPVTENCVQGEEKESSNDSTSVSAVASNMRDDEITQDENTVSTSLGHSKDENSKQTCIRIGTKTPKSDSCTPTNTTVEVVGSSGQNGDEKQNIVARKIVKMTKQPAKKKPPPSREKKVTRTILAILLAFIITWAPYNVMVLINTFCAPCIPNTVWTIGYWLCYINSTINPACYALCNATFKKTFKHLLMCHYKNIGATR
The experiment is described as follows: Functional M2-GIRK1/4 activation test: allosteric potency (EC50) and efficiency. As to conditions: for EC50: Receptor activity EC50, CHO-DUKX-M2-GIRK cells, acetylcholine at EC20, in some cases mean of two or more determinations; for Emax: read-out: Efficiency, boosting of the acetylcholine effect at EC20 acetylcholine concentration; for Emax / Efficiency: CHO-DUKX-M2-GIRK cells; for Efficiency: boosting of the acetylcholine effect at EC20 acetylcholine concentration.

As for `O=C(NC(c1ccccc1Cl)C(F)(F)F)c1cn(-c2ncc(F)cc2F)c2nc(N3C[C@@H](O)[C@H](O)C3)ccc2c1=O` (mixture of isomers) [Example 83, N-[1-(2-Chlorophenyl)-2,2,2-trifluoroethyl]-1-(3,5-difluoropyridin-2-yl)-7-[(3R,4R)-3,4-dihydroxypyrrolidin-1-yl]-4-oxo-1,4-dihydro-1,8-naphthyridine-3-carboxamide], the EC50 is 17 nM and the Emax amounted to 100%.
For `CC[C@@H](NC(=O)c1cn(-c2ncc(F)cc2F)c2nc(N3CCOCC3)ccc2c1=O)C(F)(F)F` [Example 71, 1-(3,5-Difluoropyridin-2-yl)-7-(morpholin-4-yl)-4-oxo-N-[(2R)-1,1,1-trifluorobutan-2-yl]-1,4-dihydro-1,8-naphthyridine-3-carbonxamide], a half-maximal effect (EC50) was put at 360 nM and the Emax is 97.5%.
The matching figures for `CC[C@H](NC(=O)c1cn(-c2c(F)cncc2F)c2nc(N3C[C@@H](O)CC3=O)ccc2c1=O)C(F)(F)F` [Example 24, 1-(3,5-Difluoropyridin-4-yl)-7-[(4S)-4-hydroxy-2-oxopyrrolidin-1-yl]-4-oxo-N-[(2S)-1,1,1-trifluorobutan-2-yl]-1,4-dihydro-1,8-naphthyridine-3-carboxamide]: 560 nM and 87%.
Take `CC(C)(C)[C@H](NC(=O)c1cn(-c2ncc(F)cc2F)c2nc(N3C[C@@H](O)[C@H](O)C3)ccc2c1=O)C(F)(F)F` [Example 99, 1-(3,5-Difluoropyridin-2-yl)-7-[(3R,4R)-3,4-dihydroxypyrrolidin-1-yl]-4-oxo-N-[(2S)-1,1,1-trifluoro-3,3-dimethylbutan-2-yl]-1,4-dihydro-1,8-naphthyridine-3-carboxamide]: the EC50 was found to be 38 nM and the Emax amounted to 100%.
Taken in the same sequence, the figures for `O=C(NC(c1ccc(F)cc1)C(F)(F)F)c1cn(-c2ncc(F)cc2F)c2nc(N3C[C@@H](O)CC3=O)ccc2c1=O` (single isomer, unassigned) [Example 12] were 55 nM and 100%.
`CC[C@H](NC(=O)c1cn(-c2ncc(F)cc2F)c2nc(N3CC(O)(C(F)(F)F)C3)ccc2c1=O)C(F)(F)F` [Example 131, 1-(3,5-Difluoropyridin-2-yl)-7-[3-hydroxy-3-(trifluoromethyl)azetidin-1-yl]-4-oxo-N-[(2S)-1,1,1-trifluorobutan-2-yl]-1,4-dihydro-1,8-naphthyridine-3-carboxamide]: the midpoint of the response, the EC50, lay at 108 nM and the Emax turned out to be 95.5%.
The matching figures for `O=C(N[C@@H](C1CC1)C(F)(F)F)c1cn(-c2ncc(F)cc2F)c2nc(N3C[C@@H](O)[C@H](O)C3)ccc2c1=O` [Example 63, N-[(1S)-1-Cyclopropyl-2,2,2-trifluoroethyl]-1-(3,5-difluoropyridin-2-yl)-7-[(3R,4R)-3,4-dihydroxypyrrolidin-1-yl]-4-oxo-1,4-dihydro-1,8-naphthyridine-3-carboxamide]: 170 nM and 100%.
With `CC(NC(=O)c1cn(-c2ncc(F)cc2F)c2nc(N3C[C@@H](O)CC3=O)ccc2c1=O)C(F)(F)C(F)(F)F` (mixture of isomers) [Example 76, 1-(3,5-Difluoropyridin-2-yl)-7-[(4S)-4-hydroxy-2-oxopyrrolidin-1-yl]-4-oxo-N-[3,3,4,4,4-pentafluorobutan-2-yl]-1,4-dihydro-1,8-naphthyridine-3-carboxamide], the EC50 was found to be 35 nM and the Emax came to 94%.
As to `O=C(NC(c1ccccc1Cl)C(F)(F)F)c1cn(-c2ncc(F)cc2F)c2nc(N3CCNC3=O)ccc2c1=O` (racemic) [Example 147, N-[1-(2-Chlorophenyl)-2,2,2-trifluoroethyl]-1-(3,5-difluoropyridin-2-yl)-4-oxo-7-(2-oxoimidazolidin-1-yl)-1,4-dihydro-1,8-naphthyridine-3-carboxamide], the response was half-maximal at 55 nM (EC50) and the Emax was 98.5%.
Taken in the same sequence, the figures for `CC[C@@H](NC(=O)c1cn(-c2ncc(F)cc2F)c2nc(N3CCCC(O)C3)ccc2c1=O)C(F)(F)F` (mixture of isomers) [Example 117, 1-(3,5-Difluoropyridin-2-yl)-7-[3-hydroxypiperidin-1-yl]-4-oxo-N-[(2R)-1,1,1-trifluorobutan-2-yl]-1,4-dihydro-1,8-naphthyridine-3-carboxamide] were 400 nM and 94.5%.
Consider `O=C(N[C@H](C1CC1)C(F)(F)F)c1cn(-c2ncc(F)cc2Cl)c2nc(N3CC4CC4(O)C3)ccc2c1=O` (mixture of isomers) [Example 52, 1-(3-Chloro-5-fluoropyridin-2-yl)-N-[(1R)-1-cyclopropyl-2,2,2-trifluoroethyl]-7-[1-hydroxy-3-azabicyclo[3.1.0]hex-3-yl]-4-oxo-1,4-dihydro-1,8-naphthyridine-3-carboxamide], for which the EC50 turned out to be 48 nM and the Emax was determined as 90.5%.
Molecule `CC[C@H](NC(=O)c1cn(-c2ncc(F)cc2F)c2nc(N3CC(O)C(C)C3=O)ccc2c1=O)C(F)(F)F` (single isomer, unassigned) [Example 111] gave an EC50 of 100 nM and an Efficiency of 99.00%.
For the molecule `O=C(NC(CC(F)(F)F)C(F)(F)F)c1cn(-c2ncc(F)cc2F)c2nc(N3C[C@@H](O)CC3=O)ccc2c1=O` (stereo partly drawn) [Example 159, 1-(3,5-Difluoropyridin-2-yl)-N-[1,1,1,4,4,4-hexafluorobutan-2-yl]-7-[(4S)-4-hydroxy-2-oxopyrrolidin-1-yl]-4-oxo-1,4-dihydro-1,8-naphthyridine-3-carboxamide], the EC50 came out at 94 nM and the Emax worked out at 100%.
Turning to `CC[C@H](NC(=O)c1cn(-c2ncc(F)cc2F)c2nc(N3CC(O)C(C)C3=O)ccc2c1=O)C(F)(F)F` (mixture of isomers) [Example 108, 1-(3,5-Difluoropyridin-2-yl)-7-[4-hydroxy-3-methyl-2-oxopyrrolidin-1-yl]-4-oxo-N-[(2S)-1,1,1-trifluorobutan-2-yl]-1,4-dihydro-1,8-naphthyridine-3-carboxamide], the EC50 was found to be 185 nM and the Emax is 84%.
Regarding `CC[C@@H](NC(=O)c1cn(-c2ncc(F)cc2F)c2nc(N3CCCC(F)(F)C3)ccc2c1=O)C(F)(F)F` [Example 72, 7-(3,3-Difluoropiperidin-1-yl)-1-(3,5-difluoropyridin-2-yl)-4-oxo-N-[(2R)-1,1,1-trifluorobutan-2-yl]-1,4-dihydro-1,8-naphthyridine-3-carboxamide], a half-maximal response (EC50) required 45 nM and the Emax turned out to be 90%.
In the case of `C[C@@H]1CN(c2ccc3c(=O)c(C(=O)NC(C)(C)C(F)F)cn(-c4ncc(F)cc4F)c3n2)C(=O)N1` [Example 144, N-(1,1-difluoro-2-methylpropan-2-yl)-1-(3,5-difluoropyridin-2-yl)-7-[(4R)-4-methyl-2-oxoimidazolidin-1-yl]-4-oxo-1,4-dihydro-1,8-naphthyridine-3-carboxamide], the midpoint of the response, the EC50, lay at 150 nM and the Emax was found to be 92%.
Taken in the same sequence, the figures for `O=C(N[C@@H](C1CC1)C(F)(F)F)c1cn(-c2ncc(F)cc2F)c2nc(N3CCN(CCO)C3=O)ccc2c1=O` [Example 167, N-[(1S)-1-Cyclopropyl-2,2,2-trifluoroethyl]-1-(3,5-difluoropyridin-2-yl)-7-[3-(2-hydroxyethyl)-2-oxoimidazolidin-1-yl]-4-oxo-1,4-dihydro-1,8-naphthyridine-3-carboxamide] were 420 nM and 92%.
On to `CC(C)C[C@@H](NC(=O)c1cn(-c2ncc(F)cc2F)c2nc(N3C[C@@H](O)[C@H](O)C3)ccc2c1=O)C(F)(F)F` [Example 81, 1-(3,5-Difluoropyridin-2-yl)-7-[(3R,4R)-3,4-dihydroxypyrrolidin-1-yl]-4-oxo-N-[(2R)-1,1,1-trifluoro-4-methylpentan-2-yl]-1,4-dihydro-1,8-naphthyridine-3-carboxamide], for which the EC50 was 15 nM and the Emax turned out to be 100%.
The matching figures for `CC[C@@H](NC(=O)c1cn(-c2ncc(F)cc2Cl)c2nc(N3CC4CC4(O)C3)ccc2c1=O)C(F)(F)F` (mixture of isomers) [Example 48, 1-(3-Chloro-5-fluoropyridin-2-yl)-7-[1-hydroxy-3-azabicyclo[3.1.0]hex-3-yl]-4-oxo-N-[(2R)-1,1,1-trifluorobutan-2-yl]-1,4-dihydro-1,8-naphthyridine-3-carboxamide]: 74 nM and 92.5%.
The matching figures for `O=C(NC(C1CC1)C(F)(F)F)c1cn(-c2ncc(F)cc2F)c2nc(N3C[C@@H](O)[C@@H](O)C3)ccc2c1=O` (stereo partly drawn) [Example 35, N-[1-Cyclopropyl-2,2,2-trifluoroethyl]-1-(3,5-difluoropyridin-2-yl)-7-[(3R,4S)-3,4-dihydroxypyrrolidin-1-yl]-4-oxo-1,4-dihydro-1,8-naphthyridine-3-carboxamide]: 170 nM and 99.5%.
With `CCC(NC(=O)c1cn(-c2ncc(F)cc2F)c2nc(N3C[C@@H](O)CC3=O)ccc2c1=O)C(F)(F)C(F)(F)F` (single isomer, unassigned) [Example 94], the response was half-maximal at 32 nM (EC50) and the Efficiency is reported as 100.00%.
